Test results from patent US20200352934A1, “LOW-TEMPERATURE STABLE OPIOID ANTAGONIST SOLUTIONS” (priority 2017, published 2020).
Read-outs that look alike come from different tables or passages of the source.

Details: storage at 4° C.
[1] = per 100 mL: EDTA-Na2 0 mg, PG 5% w/v
[2] = per 100 mL: EDTA-Na2 0 mg, PG 10% w/v
[3] = per 100 mL: EDTA-Na2 0 mg, PG 20% w/v
[4] = per 100 mL: EDTA-Na2 100 mg, PG 5% w/v
[5] = per 100 mL: EDTA-Na2 100 mg, PG 10% w/v
[6] = per 100 mL: EDTA-Na2 100 mg, PG 20% w/v

C=CCN1CC[C@]23c4c5ccc(O)c4O[C@H]2C(=O)CC[C@@]3(O)[C@H]1C5 [Naloxone]
No: Observed naloxone precipitation 24 days [1] | Observed naloxone precipitation 24 days [2] | Observed naloxone precipitation 24 days [3] | Observed naloxone precipitation 24 days [4] | Observed naloxone precipitation 24 days [5] | Observed naloxone precipitation 35 days [1] | Observed naloxone precipitation 35 days [2] | Observed naloxone precipitation 35 days [3] | Observed naloxone precipitation 35 days [4] | Observed naloxone precipitation 35 days [5] | Observed naloxone precipitation 53 days [1] | Observed naloxone precipitation 53 days [2] | Observed naloxone precipitation 53 days [3] | Observed naloxone precipitation 53 days [4]
No and Yes: Observed naloxone precipitation 35 days [6] | Observed naloxone precipitation 53 days [6]
No and Slight: Observed naloxone precipitation 24 days [6] | Observed naloxone precipitation 53 days [5]
